Laboratory results published in patent US6469168B1, “Piperazinylalkylthiopyrimidine derivatives, pharmaceutical compositions containing the same, and a process for the preparation of the active substance” (EGIS Gyógyszergyár Rt., priority 1999, dated 2002).
Structures can show the parent of a compound that is named as a salt. Where two headings read alike, the source gives them in different places.

Experiments:
[1] = system: male NMRI mice; test: Determination of the spontaneous motor activity; details: p.o., 60 minutes prior to the test, dose producing 50% of inhibition of motor activity
Protocol: 2. Determination of the Spontaneous Motor Activity
For the experiments, male NMRI mice weighing 20 to 25 g were used. Each treatment group consisted of 10 mice. The substance to be examined or the vehicle (i.e. a 0.4% solution of methylcellulose) was administered to the animals in a volume of 20 ml/kg as a suspension per os 60 minutes prior to the test. […] In case of anxiolytics, the value of the anxiolytic effect depends on the presence or absence of the sedative action (the latter is […]). For the experiments, an apparatus “digital motimeter” having 10 measuring places was used. The motion of the animals was indicated by the interruption of three parallel beams of infrared light at each measuring place, and the interruptions were recorded by the apparatus. The activity of one animal was determined at each measuring place. […] Int.

[2] = system: male SPRD rats; test: Elevated plus-maze test; format: in vivo, rat; details: for minimal effective dose: Rattus norvegicus, po, 1 h, read-out: Minimum effective dose
Protocol: 1. Elevated Plus-Maze Test
The tests were carried out on male SPRD rats weighing 220 to 260 g. Each group of animal consisted of 8 to 10 pieces of rat. The substance to be examined or the vehicle (i.e. distilled water or a 0.4% solution of methylcellulose) was administered to the animals in a volume of 5 ml/kg as a solution or suspension per os 60 minutes prior to the test.
The elevated plus-maze consists of two open and two 40 cm wall enclosed arms of the same size (50×15 cm) arranged in the shape of a cross. The arms of the same type are opposite to each other. The junction of the four arms forms a central square area (15×15 cm). The apparatus is made of a wooden material elevated to a height of 50 cm and illuminated by a dim light from above. The essence of the method is that during the exploration of the apparatus, the animals spend considerably more time in the closed arms than in the open arms due to the natural fear from open space and height. […] Methods., 14, 149-167 (1985)].

[3] = p.o., 60 minutes prior to the test, male SPRD rats, time spent in and entries into open arms

Compound	ID50 [1] [mg/kg]	melting point [°C]	minimal effective dose [2, 3] [mg/kg]	other results
4,6-Diamino-2-[2-(4-methyl-1-piperazinyl)propylthio]-5-(2-methoxybenzyl)pyrimidine trihydrochloride hydrate [Example 4]	32.8			Minimum effective dose [2, 3]: 1 mg/kg
4,6-Diamino-2-[2-/4-(2-dimethylaminoethyl)-1-piperazinyl/-ethyl-thio]-5-(2-methoxybenzyl)pyrimidine tetrahydrochloride dihydrate [Example 6]	>100			Minimum effective dose [2, 3]: 0.03 mg/kg
4,6-Diamino-2-[3-(1-piperazinyl)ethylthio]-5-(2-ethoxybenzyl)-pyrimidine trihydrochloride trihydrate [Example 14]				Minimum effective dose [2, 3]: 1 mg/kg
4,6-Diamino-2-[4-(4-methyl-1-piperazinyl)ethylthio]-5-(2-ethoxybenzyl)pyrimidine trihydrochloride hydrate [Example 13]				Minimum effective dose [2, 3]: 1 mg/kg
4,6-Diamino-5-(2-methoxybenzyl)-2-[2-(1-piperazinyl)ethylthio]-pyrimidine fumarate [Example 2]	>100			Minimum effective dose [2, 3]: 1 mg/kg
COc1ccccc1Cc1c(N)nc(SCCN2CCN(C(C)C)CC2)nc1N (as salt: hydrochloride) (hydrate or solvate) [Example 5, 4,6-Diamino-2-[2-(4-isopropyl-1-piperazinyl)ethylthio]-5-(2-methoxybenzyl)pyrimidine trihydrochloride hydrate]		253 to 255		
COc1ccccc1Cc1c(N)nc(SCCCCN2CCN(C)CC2)nc1N (as salt: hydrochloride) (hydrate or solvate) [Example 8, 4,6-Diamino-2-[4-(4-methyl-1-piperazinyl)butylthio]-5-(2-methoxybenzyl)pyrimidine trihydrochloride hydrate]		202		
Nc1nc(SCCCN2CCNCC2)nc(N)c1Cc1ccc(Cl)cc1 (as salt: hydrochloride) (hydrate or solvate) [Example 17, 4,6-Diamino-2-[3-(1-piperazinyl)propylthio]-5-(4-chlorobenzyl)-pyrimidine trihydrochloride trihydrate]		187		
Nc1nc(SCCN2CCNCC2)nc(N)c1Cc1ccc(F)cc1 (as salt: hydrochloride) (hydrate or solvate) [Example 19, 4,6-Diamino-2-[2-(1-piperazinyl)ethylthio]-5-(4-fluorobenzyl)-pyrimidine trihydrochloride hydrate]		168 to 170		
COc1ccccc1Cc1c(N)nc(SCCN2CCN(CCCN(C)C)CC2)nc1N (as salt: hydrochloride) (hydrate or solvate) [Example 26, 4,6-Diamino-2-{2-[4-(3-dimethylaminopropyl)-1-piperazinyl]-ethylthio}-5-(2-methoxybenzyl)pyrimidine tetrahydrochloride hydrate]		262 to 264		
COc1ccccc1Cc1c(N)nc(SCCCN2CCNCC2)nc1N (as salt: hydrochloride) [Example 10, 4,6-Diamino-2-[3-(1-piperazinyl)propylthio]-5-(2-methoxy-benzyl)pyrimidine trihydrochloride]		197 to 198		
COc1ccccc1Cc1c(N)nc(SCCCCN2CCNCC2)nc1N (as salt: hydrochloride) [Example 18, 4,6-Diamino-2-[4-(1-piperazinyl)butylthio]-5-(2-methoxybenzyl)-pyrimidine trihydrochloride]		255		
COc1ccccc1Cc1c(N)nc(SCCN2CCNCC2)nc1N [1 (besylate), 4,6-Diamino-5-(2-methoxybenzyl)-2-[2-(1-piperazinyl)ethylthio]-pyrimidine]	>90			Minimum effective dose [2, 3]: 1 mg/kg
COc1ccccc1Cc1c(N)nc(SCCN2CCNCC2)nc1N [Example 1 (fumarate), 4,6-Diamino-5-(2-methoxybenzyl)-2-[2-(1-piperazinyl)ethylthio]-pyrimidine]	>100			Minimum effective dose [2, 3]: 3 mg/kg
COc1ccccc1Cc1c(N)nc(SCCN2CCN(C(C)C)CC2)nc1N [Example 5, 4,6-Diamino-2-[2-(4-isopropyl-1-piperazinyl)ethylthio]-5-(2-methoxybenzyl)pyrimidine trihydrochloride hydrate]	>100		3	
CCOc1ccccc1Cc1c(N)nc(SCCCN2CCN(C=O)CC2)nc1N [Example 7, 4,6-Diamino-2-[3-(4-formyl-1-piperazinyi)propylthio]-5-(2-ethoxybenzyl)pyrimidine]	>100			Minimum effective dose [2, 3]: <1 mg/kg
COc1ccccc1Cc1c(N)nc(SCCCCN2CCN(C)CC2)nc1N [Example 8, 4,6-Diamino-2-[4-(4-methyl-1-piperazinyl)butylthio]-5-(2-methoxybenzyl)pyrimidine trihydrochloride hydrate]	>100		3	
COc1ccccc1Cc1c(N)nc(SCCCN2CCN(C=O)CC2)nc1N [Example 9, 4,6-Diamino-2-[3-(4-formyl-1-piperazinyl)propylthio]-5-(2-methoxybenzyl)pyrimidine]		174 to 176	3	
COc1ccccc1Cc1c(N)nc(SCCCN2CCNCC2)nc1N [Example 10, 4,6-Diamino-2-[3-(1-piperazinyl)propylthio]-5-(2-methoxy-benzyl)pyrimidine trihydrochloride]			1	
COc1ccccc1Cc1c(N)nc(SCCCN2CCN(C(C)=O)CC2)nc1N [Example 12, 4,6-Diamino-2-[3-(4-acetyl-1-piperazinyl)propylthio]-5-(2-methoxybenzyl)pyrimidine]		208 to 209	1	
COc1ccccc1Cc1c(N)nc(SCCN2CCN(C(C)=O)CC2)nc1N [Example 16, 4,6-Diamino-2-[2-(4-acetyl-1-piperazinyl)ethylthio]-5-(2-methoxybenzyl)pyrimidine]	>100	198.5 to 199.5	3	
Nc1nc(SCCCN2CCNCC2)nc(N)c1Cc1ccc(Cl)cc1 [Example 17, 4,6-Diamino-2-[3-(1-piperazinyl)propylthio]-5-(4-chlorobenzyl)-pyrimidine trihydrochloride trihydrate]	>100		1	
COc1ccccc1Cc1c(N)nc(SCCCCN2CCNCC2)nc1N [Example 18, 4,6-Diamino-2-[4-(1-piperazinyl)butylthio]-5-(2-methoxybenzyl)-pyrimidine trihydrochloride]	>100		1	
Nc1nc(SCCN2CCNCC2)nc(N)c1Cc1ccc(F)cc1 [Example 19, 4,6-Diamino-2-[2-(1-piperazinyl)ethylthio]-5-(4-fluorobenzyl)-pyrimidine trihydrochloride hydrate]	>100		0.01	
CC(C)c1ccc(Cc2c(N)nc(SCCN3CCNCC3)nc2N)cc1 [Example 25, 4,6-Diamino-2-[2-(1-piperazinyl)ethylthio]-5-(4-isopropylbenzyl)-pyrimidine]		63 to 64		
COc1ccccc1Cc1c(N)nc(SCCN2CCN(CCCN(C)C)CC2)nc1N [Example 26, 4,6-Diamino-2-{2-[4-(3-dimethylaminopropyl)-1-piperazinyl]-ethylthio}-5-(2-methoxybenzyl)pyrimidine tetrahydrochloride hydrate]	>100		0.3	
CN1C(=O)CN=C(c2ccccc2)c2cc(Cl)ccc21 [diazepam, 7-chloro-1,3-dihydro-1-methyl-5-phenyl-2H-1,4-benzodiazepine-2-one, reference compound]				minimal effective dose [2]: 1 mg/kg
